Measurements taken from ChEMBL document CHEMBL6153037, “Developing dual-responsive quinolinium prodrugs of 8-hydroxyquinoline by harnessing the dual chelating sites” (Eur J Med Chem, 2025).
Activity calls are given as the source filed them. The calls are words filed in the database; no cut-off is given here.

Experiments:
MDA-MB-231 [1] = assay: Anti-migration activity in human MDA-MB-231 cells at 0.8 uM incubated for 48 hrs by wound healing assay (reference value: 65.2 %); assay type: functional
MCF-10A [2] = assay: Cytotoxicity against human MCF-10A cells assessed as increase in red fluorescence at 0.4 to 0.8 uM by Calcein AM/PI staining based analysis; assay type: toxicity, cell-based; conditions: dose 0.4-0.8 µM
MCF-10A [3] = assay: Inhibition of mitochondrial membrane potential in human MCF-10A cells assessed as increase in intracellular calcium level at 0.4 to 0.8 uM incubated for 24 hrs by Fluo-4 AM dye based analysis; assay type: toxicity, cell-based; conditions: dose 0.4-0.8 µM
MDA-MB-231 [4] = assay: Induction of apoptosis in human MDA-MB-231 cells assessed as viable cells at 0.8 uM incubated for 24 hrs by Annexin V-FITC/PI staining based flow cytometry (reference value: 86.2 %); assay type: functional; conditions: read-out: Activity
MDA-MB-231 [5] = assay: Induction of apoptosis in human MDA-MB-231 cells assessed as necrotic cells at 0.4 uM incubated for 24 hrs by Annexin V-FITC/PI staining based flow cytometry (reference value: 0.59 %); assay type: functional
MDA-MB-231 [6] = assay: Cytotoxicity against NAC-treated human MDA-MB-231 cells incubated for 48 hrs by MTT assay; assay type: functional, cell-based
[7] = Induction of apoptosis in human MCF-10A cells assessed as viable cells at 1.2 uM incubated for 24 hrs by Annexin V-FITC/PI staining based flow cytometry (reference value: 92.5 %); assay type: toxicity, cell-based; conditions: read-out: Activity
MDA-MB-231 [8] = assay: Induction of apoptosis in human MDA-MB-231 cells assessed as late apoptotic cells at 1.2 uM incubated for 24 hrs by Annexin V-FITC/PI staining based flow cytometry (reference value: 5.81 %); assay type: functional
OVCAR-3 = assay: Cytotoxicity against CuCl2-treated human OVCAR-3 cells assessed as inhibition of cell viability incubated for 48 hrs by MTT assay; assay type: functional, cell-based; conditions: OVCAR-3, 48 h
MDA-MB-231 [9] = assay: Cytotoxicity against LPS-treated human MDA-MB-231 cells incubated for 48 hrs by MTT assay; assay type: functional, cell-based
[10] = Toxicity in BALB/c nude mouse xenografted with human MDA-MB-231 cells assessed as body weight change at 10 to 20 mg/kg, iv administered every two days for 21 days; assay type: organism-based; conditions: in vivo, 504 h, dose 10-20 mg/kg, time 21 day
MDA-MB-231 [11] = assay: Antitumor activity against human MDA-MB-231 cells xenografted in BALB/c nude mouse assessed as tumor growth inhibition at 10 to 20 mg/kg, iv administered every two days for 21 days; assay type: functional, organism-based; conditions: dose 10-20 mg/kg, time 21.0 day
MDA-MB-231 [12] = assay: Inhibition of mitochondrial membrane potential in human MDA-MB-231 cells assessed as increase in green fluorescence at 0.8 uM incubated for 24 hrs by JC-1 dye based analysis; assay type: functional, cell-based
[13] = Prodrug conversion in PBS at pH 7.4 containing H2O2 assessed as 4-hydroxybenzyl alcohol release by measuring retention time at 50 uM measured after 15 mins by HPLC analysis; assay type: ADME; conditions: buffer, pH 7.4, 0.25 h
MDA-MB-231 [14] = assay: Induction of cell cycle arrest in human MDA-MB-231 cells assessed as accumulation at G0/G1 phase at 0.4 uM by PI staining based flow cytometry (reference value: 64.6 %); assay type: functional
MCF-10A [15] = assay: Induction of apoptosis in human MCF-10A cells assessed as necrotic cells at 0.8 uM incubated for 24 hrs by Annexin V-FITC/PI staining based flow cytometry (reference value: 1.38 %); assay type: toxicity, cell-based
MCF-10A [16] = assay: Induction of apoptosis in human MCF-10A cells assessed as early apoptotic cells at 0.4 uM incubated for 24 hrs by Annexin V-FITC/PI staining based flow cytometry (reference value: 2.96 %); assay type: toxicity, cell-based
HeLa = assay: Cytotoxicity against CuCl2-treated human HeLa cells assessed as inhibition of cell viability incubated for 48 hrs by MTT assay; assay type: functional, cell-based
MDA-MB-231 [17] = assay: Inhibition of mitochondrial membrane potential in human MDA-MB-231 cells assessed as decrease in ATP level at 0.4 to 0.8 uM incubated for 24 hrs by luminescence based analysis; assay type: functional, cell-based; conditions: dose 0.4-0.8 µM
MDA-MB-231 [18] = assay: Induction of apoptosis in human MDA-MB-231 cells assessed as late apoptotic cells at 0.8 uM incubated for 24 hrs by Annexin V-FITC/PI staining based flow cytometry (reference value: 5.81 %); assay type: functional
MDA-MB-231 [19] = assay: Inhibition of mitochondrial membrane potential in human MDA-MB-231 cells assessed as increase in intracellular calcium level at 0.4 to 0.8 uM incubated for 24 hrs by Fluo-4 AM dye based analysis; assay type: functional, cell-based; conditions: dose 0.4-0.8 µM
MCF-10A [20] = assay: Induction of apoptosis in human MCF-10A cells assessed as late apoptotic cells at 0.4 uM incubated for 24 hrs by Annexin V-FITC/PI staining based flow cytometry (reference value: 3.13 %); assay type: toxicity, cell-based
MDA-MB-231 [21] = assay: Anti-migration activity in human MDA-MB-231 cells at 0.4 uM incubated for 48 hrs by wound healing assay (reference value: 65.2 %); assay type: functional
MDA-MB-231 [22] = assay: Cytotoxicity against CuCl2-treated human MDA-MB-231 cells assessed as inhibition of cell viability incubated for 48 hrs by MTT assay; assay type: functional, cell-based; conditions: MDA-MB-231, 48 h
MDA-MB-231 [23] = assay: Induction of apoptosis in human MDA-MB-231 cells assessed as necrotic cells at 1.2 uM incubated for 24 hrs by Annexin V-FITC/PI staining based flow cytometry (reference value: 0.59 %); assay type: functional
[24] = Stability of compound in PBS at pH 7.4 containing H2O2 assessed as compound remaining at 50 uM measured after 30 mins by HPLC analysis; assay type: physicochemical; conditions: buffer, pH 7.4, 0.5 h
MCF-10A [25] = assay: Induction of apoptosis in human MCF-10A cells assessed as necrotic cells at 0.4 uM incubated for 24 hrs by Annexin V-FITC/PI staining based flow cytometry (reference value: 1.38 %); assay type: toxicity, cell-based
A549 = assay: Cytotoxicity against CuCl2-treated human A549 cells assessed as inhibition of cell viability incubated for 48 hrs by MTT assay; assay type: functional, cell-based; conditions: A549, 48 h
MDA-MB-231 [26] = assay: Induction of apoptosis in human MDA-MB-231 cells assessed as viable cells at 0.4 uM incubated for 24 hrs by Annexin V-FITC/PI staining based flow cytometry (reference value: 86.2 %); assay type: functional; conditions: read-out: Activity
[27] = Prodrug conversion in solution containing Cu(II) assessed as 8-HQ-Cu(II) complex formation at 50 uM measured upto 30 mins by UV-Vis spectrophotometry; assay type: ADME; conditions: 0.5 h
MCF-10A [28] = assay: Inhibition of mitochondrial membrane potential in human MCF-10A cells assessed as increase in green fluorescence at 0.8 uM incubated for 24 hrs by JC-1 dye based analysis; assay type: toxicity, cell-based
MCF-10A [29] = assay: Induction of apoptosis in human MCF-10A cells assessed as late apoptotic cells at 0.8 uM incubated for 24 hrs by Annexin V-FITC/PI staining based flow cytometry (reference value: 3.13 %); assay type: toxicity, cell-based
MDA-MB-231 [30] = assay: Antitumor activity against human MDA-MB-231 cells assessed as sphere-forming efficiency incubated for 6 hrs followed by medium replacement without compound measured after 6 days by microscopic analysis (reference value: 1.07 %); assay type: functional
MDA-MB-231 [31] = assay: Anti-migration activity in human MDA-MB-231 cells at 0.8 uM incubated for 24 hrs by wound healing assay (reference value: 45.4 %); assay type: functional

Compound: CC1(C)OB(c2ccc(C[n+]3cccc4cccc(O)c43)cc2)OC1(C)C.[Br-]
- Activity (MDA-MB-231 [1]): 12.8%
- Activity (MCF-10A [2]): Non-toxic
- Activity (MCF-10A [3]): Non-toxic
- viability at 0.8 µM (MDA-MB-231 [4]): 24.8%
- Activity (MDA-MB-231 [5]): 1.47%
- Activity (MDA-MB-231 [6]): inactive
- viability at 24 h, 1.2 µM [7]: 93.3%
- Activity (MDA-MB-231 [8]): 16.4%
- IC50 (OVCAR-3): 6.63 µM
- Activity (MDA-MB-231 [9]): Active
- Activity [10]: Non-toxic
- inhibition (MDA-MB-231 [11]): Active
- inhibition (MDA-MB-231 [12]): Active
- Retention_time [13]: 10.2 min
- Activity (MDA-MB-231 [14]): 68.1%
- Activity (MCF-10A [15]): 0.36%
- Activity (MCF-10A [16]): 2%
- IC50 (HeLa): 11.2 µM
- inhibition (MDA-MB-231 [17]): Active
- Activity (MDA-MB-231 [18]): 27.9%
- inhibition (MDA-MB-231 [19]): Active
- Activity (MCF-10A [20]): 2.74%
- Activity (MDA-MB-231 [21]): 34.6%
- IC50 (MDA-MB-231 [22]): 0.83 µM
- Activity (MDA-MB-231 [23]): 6.03%
- Stability [24]: Unstable
- Activity (MCF-10A [25]): 0.36%
- IC50 (A549): 3.48 µM
- viability at 0.4 µM (MDA-MB-231 [26]): 71.2%
- Drug metabolism [27]: metabolite_detected
- Activity (MCF-10A [28]): Non-toxic
- Activity (MCF-10A [29]): 3.77%
- Activity (MDA-MB-231 [30]): 0.22%
- Activity (MDA-MB-231 [31]): 7.3%
